Peptide text beside a SMILES is read from it. * marks the point of attachment. Cbz = O=C(OCc1ccccc1)*
What was measured:
[1] = tested on: medulloblastoma sensitive to Smo inhibitors; design: method as in PMID 19716296; details: GDC-0449 50 mg/kg; cited from earlier work
[2] = tested on: hair growth and Hh pathway activity in skin; assay: Depilatory mouse model; format: in vivo
Description: For Depilatory model studies, male C57BL/6J mice (7 to 8 weeks of age) were purchased from Shanghai Lingchang Biotechnology Co. (Shanghai, China). After 2 days of acclimation, only healthy mice were used in the experiment. The back skin of the anesthetized mice was shaved and depilated using the depilatory Nair (Church & Dwight Co., Inc.). After 4 days, the depilated mice were randomized into groups for treatments as indicated. The back skin phenotypes were recorded by taking pictures every 3 days. Skin tissues were harvested 6 h after the last dosage to examining Gli1 mRNA expression as well as Gli1 and Bcl-xL protein levels.

[3] = tested on: SmoA1 (Smo W539L) medulloblastoma tumor; assay: SmoA1 medulloblastoma allograft in nude mice; format: in vivo, mouse
Description: For in vivo SmoA1 MB allograft studies, SmoA1 spontaneous MB tumors were obtained from ND2:SmoA1 transgenic mice as previously described. Male nude mice (4 to 5 weeks of age) were purchased from Shanghai Lingchang Biotechnology Co. (Shanghai, China). Spontaneous tumors were harvested and subcutaneously allografted into nude mice. When the tumor volumes reached approximately 2000 mm^3, they were harvested and further subcutaneously allografted into nude mice. When the tumor volumes reached about 150 to 200 mm^3, the tumor-bearing mice were randomly assigned into vehicle and treatment groups. Mice were weighed every 3 days. Tumor size was measured once every 3 days using microcaliper. Tumor volume (V) was determined using the following formula: V = (L×W^2) ×0.5, where L is length, and W is width in mm. Tumor tissues were harvested 6 h after the last dosage to examining Gli1 mRNA expression and protein levels. SIAIS361034 for i.p. administration was formulated in 0.5% sodium carboxymethyl cellulose (CMC-Na). All in vivo studies above were approved by and conformed to the policies and regulations of the Animal Care and Use Committee of Fudan University, China.

[4] = tested on: Hh pathway (Gli-luciferase) provoked by Smo WT / Smo mutants; assay: Dual luciferase reporter assay, Hh activity induced by ectopic Smo WT or Smo mutants in light II cells; format: cell-based; details: Smo WT, D473H, H231R, W281C, W535L, L412F, F460L, GDC-0449 10 μM (Figure S3B-D)
Description: (§1) The TCF/LEF luciferase reporter plasmid, NF-κB luciferase reporter plasmid, and TK-Renilla luciferase plasmid were purchased from Promega (Madison, WI, USA). Smo plasmid was purchased from Origene (Rockville, MD, USA). The Smo mutant plasmids were generated from wild type Smo plasmid using QuickChange Site-Directed Mutagenesis kit from Agilent (Santa Clara, CA, USA) and confirmed by sequencing. Information on Smo mutants plasmids is provided in Supplementary data 2. The Gli1 plasmid and Gli2-HA plasmid were obtained from Addgene (Cambridge, MA, USA). Transient transfections were performed by Lipofectamine 2000 reagent from Invitrogen (Grand Island, NY, USA) according to the manufacturer's instructions.
(§2) Cells seeded in 96-well plates were treated with various treatments as indicated. The luciferase activity in the cell lysates was measured using Dual-Luciferase Reporter Assay System (Promega, Madison, WI, USA) according to the manufacturer's instructions in a luminometer (Molecular Devices, Sunnyvale, CA). The firefly luciferase values were normalized to Renilla values.

[5] = tested on: bone growth of young mice; assay: Bone growth of young mice (body weight, Micro-CT, H&E, IHC); format: in vivo, mouse; details: for body size: 5-week-old mice after treatment from P12 to P16; for femur length (Micro-CT, in words): mice at 6 weeks of age, treated P12 to P16; for levels of Bcl-xL in femurs (IHC): mice treated P12 to P16; for expression levels of Gli1 in femurs (IHC): mice treated P12 to P16, compared with Vehicle
Description: Skeleton Micro-CT images of mice were taken under anesthesia. The femurs were fixed and stored in 4% PFA at 4 °C. Mice and femurs were scanned using Inveon PET-CT (Siemens). Bone tissues were computed with Inveon Acquisition Workplace (IAW). Image data were visualized and analyzed by Inveon Viewer.
Femurs were fixed in 4% PFA and decalcified in 14% EDTA for 2 weeks at 4 °C. Bone tissues were embedded in paraffin. Thin sections were stained with hematoxylin and eosin (H&E) according to the manufacturer's instructions. For immunohistochemistry (IHC), paraffin-embedded sections of femurs were baked at 60 °C for 20 min, deparaffinized by xylene for 25 min, rehydrated through ethanol series, and incubated with citrate buffer at 95 °C for 20 min for antigen retrieval. Sections were incubated with the primary antibodies as indicated overnight at 4 °C, followed by goat anti-rabbit secondary antibody. The primary antibodies used in this study include Bcl-xL (1:2000, ab178844, Abcam) and Gli1 (1:100, 101156-T10, Sino Biological).

[6] = tested on: Hh pathway (Gli-luciferase) provoked by Gli2; assay: Dual luciferase reporter assay, Hh activity initiated by ectopic Gli2-HA in light II cells; format: cell-based; details: for IC50: ectopic Gli2-HA, 36 h
Description: as §1, §2

Bcl-xL = target: T1, Bcl-xL (Mus musculus, UniProt Q64373); assay: Western blot of Bcl-xL degradation in NIH-3T3 cells; format: cell-based; details: for effect of pretreatment on SIAIS361034-induced Bcl-xL degradation: pretreated 2 h with ABT-263 1 µM, Pomalidomide 10 µM or MG132 1 µM, then SIAIS361034 24 h
T1 construct: endogenous in cells; host or cells: NIH-3T3
T1 sequence (Q64373 whole entry): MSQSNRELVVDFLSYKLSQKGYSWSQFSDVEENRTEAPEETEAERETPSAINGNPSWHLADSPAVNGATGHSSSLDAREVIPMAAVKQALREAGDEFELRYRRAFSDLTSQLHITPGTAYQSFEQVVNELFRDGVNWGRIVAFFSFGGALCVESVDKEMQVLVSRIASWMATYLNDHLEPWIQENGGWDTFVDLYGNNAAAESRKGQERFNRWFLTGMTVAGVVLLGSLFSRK
Description: (§3) Cells were lysed in cell lysis buffer (50 mM Tris pH 8.0, 150 mM NaCl, 10% glycerol, 1 mM EDTA, 50 mM NaF, and 0.1% NP-40) supplemented with protease and phosphatase inhibitors. Total protein extracts of tissues were generated in radioimmunoprecipitation (RIPA) assay lysis buffer containing complete protease and phosphatase inhibitor cocktail. Protein content was quantified using the Pierce BCA Protein Assay Kit (#23225, Thermo Fisher Scientific). The proteins were separated by SDS-PAGE, electrophoretically transferred to polyvinylidene difluoride (PVDF) blotting membranes (#LC2002, Thermo Fisher Scientific), and subjected to routine immunoblot analysis with primary antibodies as follows: anti-Bcl-2 (#15071), anti-Mcl-1 (#94296), anti-VHL (#68547), anti-CRBN (#71810), and anti-Sufu (#2522) were obtained from Cell Signaling Technology (Danvers, Massachusetts, USA); anti-Bcl-xL (#ab32370), anti-Gli1 (#ab134906), and anti-Smoothened (#ab236465) were obtained from Abcam (Cambridge, CB2 0AX, UK); anti-GAPDH (#60004-1-Ig) and anti-β-tubulin (#10094-1-AP) were purchased from Proteintech Group, Inc. (Rosemont, IL 60018, USA). The results were quantified by densitometry using ImageJ software (NIH).

[7] = tested on: Hh pathway (Gli-luciferase) in light II cells; assay: Dual luciferase reporter assay, Gli-luciferase provoked by SAG in light II cells; format: cell-based; details: SAG 100 nM; for effect of pretreatment on Gli-luciferase activity suppressed by SIAIS361034: pretreated 2 h with MG132 1 µM or Pomalidomide 10 µM, then SIAIS361034 1 µM
Description: as §2

NF-κB signaling pathway = assay: NF-κB luciferase reporter assay in 293T cells; format: cell-based; details: TNF-α 10 ng/mL, 6 h, SIAIS361034 10 μM, BAY 11-7082 20 μM
Description: as §2, with “values. […]” for “values.”
Data represent mean ± SD (n = 3). (B) NF-κB luciferase analysis of the effect of SIAIS361034 on NF-κB signaling pathway in 293T cells.The 293T cells were transfected with NF-κB luciferase reporter and Renilla-TK plasmids and […]
μM) for 6 h. Data represent mean ± SD (n = 3). […]
(§4) Data represent mean ± SD (n = 3).
(§5) (1 picture or pasted object on this page, not shown here)

platelets = assay: Platelet toxicity assay in C57BL/6J mice; format: in vivo, mouse; details: SIAIS361034 single i.p. 50 and 100 mg/kg, ABT-263 single p.o. 100 mg/kg, 8 h and 24 h
Description: Blood was collected at different time points via retro-orbital bleeding in anticoagulation tube. Platelets or different blood cells were enumerated using BM800 blood analyzer (Bowlinman Sunshine).

Gli1 = assay: Western blot of Gli1 in light II cells; format: cell-based; details: 1 µM
Description: as §3

Wnt signaling pathway = assay: TCF/LEF luciferase reporter assay in LS174T cells; format: cell-based; details: PGE2 1 μM, 24 h, SIAIS361034 10 μM, H-89 20 μM
Description: as §2, with “values. […]” for “values.”
μM) for 6 h. Data represent mean ± SD (n = 3). (C) TCF/LEF luciferase analysis of the effect of SIAIS361034 on Wnt signaling pathway in LS174T cells. The LS174T cellswere transfected with TCF/LEF luciferase reporter and Renilla-TK plasmids and […]
as §4, §5

CS(=O)(=O)c1ccc(C(=O)Nc2ccc(Cl)c(-c3ccccn3)c2)c(Cl)c1 [GDC-0449, reference compound]
TGI [1]: 100% | hair growth during depilation-induced hair regeneration ([2]; male C57BL/6J mice, administered after 4 days of depilation): significantly retarded hair growth | Gli1 and Bcl-xL protein levels in skin tissues ([2]; skin harvested 6 h after the last dosage, western blot): no effect on the levels of Bcl-xL | growth of SmoA1 tumors ([3]; nude mice, SIAIS361034 50 mg/kg, GDC-0449 50 mg/kg p.o.): obvious resistance | expression of Gli1 mRNA in tumor tissues ([3]; tumors harvested 6 h after the last dosage, RT-qPCR): no alteration | Hh activity provoked by wild type Smo and Smo mutants [4]: little appreciable effect | body size [5]: smaller body sizes | femur length (Micro-CT, in words) [5]: obvious shortening of the femur | levels of Bcl-xL in femurs (IHC) [5]: No change | expression levels of Gli1 in femurs (IHC) [5]: significantly suppressed | Hh activity evoked by ectopic expression of Gli2 [6]: no effect | IC50 [6]: > 10 µM

Nc1cccc2c1C(=O)N(C1CCC(=O)NC1=O)C2=O (centres unmarked) [Pomalidomide, reference compound]
effect of pretreatment on SIAIS361034-induced Bcl-xL degradation (Bcl-xL): obviously abolished SIAIS361034-induced Bcl-xL degradation | effect of pretreatment on Gli-luciferase activity suppressed by SIAIS361034 [7]: abolished the suppressed Gli-luciferase activity

Cc1ccc(S(=O)(=O)/C=C/C#N)cc1 [BAY 11-7082, reference compound]
NF-κB luciferase activity activated by TNF-α (NF-κB signaling pathway): significantly impeded

CC1(C)CCC(c2ccc(Cl)cc2)=C(CN2CCN(c3ccc(C(=O)NS(=O)(=O)c4ccc(N[C@H](CCN5CCOCC5)CSc5ccccc5)c(S(=O)(=O)C(F)(F)F)c4)cc3)CC2)C1 [ABT-263, reference compound]
effect of pretreatment on SIAIS361034-induced Bcl-xL degradation (Bcl-xL): abolished the SIAIS361034-induced Bcl-xL degradation | number of platelets (platelets): severe thrombocytopenia

Cc1sc2c(c1C)C(c1ccc(Cl)cc1)=N[C@@H](CC(=O)OC(C)(C)C)c1nnc(C)n1-2 [JQ1, reference compound]
Gli1 protein level (Gli1): reduced Gli1 protein

O=S(=O)(NCCNC/C=C/c1ccc(Br)cc1)c1cccc2cnccc12 [H-89, reference compound]
TCF/LEF luciferase activity (Wnt signaling) activated by PGE2 (Wnt signaling pathway): significantly inhibited

CC(C)C[C@@H](C=O)NC(=O)[C@H](CC(C)C)NC(=O)[C@H](CC(C)C)NC(=O)OCc1ccccc1 [MG132, reference compound] (Cbz-Leu-Leu-Leu-aldehyde)
effect of pretreatment on SIAIS361034-induced Bcl-xL degradation (Bcl-xL): obviously abolished SIAIS361034-induced Bcl-xL degradation | effect of pretreatment on Gli-luciferase activity suppressed by SIAIS361034 [7]: abolished the suppressed Gli-luciferase activity

Cc1ncsc1-c1ccc([C@H](C)NC(=O)[C@@H]2C[C@@H](O)CN2C(=O)[C@@H](NC(=O)CCCCCC(=O)N2CCN(CC[C@H](CSc3ccccc3)Nc3ccc(S(=O)(=O)NC(=O)c4ccc(N5CCN(CC6=C(c7ccc(Cl)cc7)CCC(C)(C)C6)CC5)cc4)cc3S(=O)(=O)C(F)(F)F)CC2)C(C)(C)C)cc1 [DT2216]
body size [5]: smaller body sizes | femur length (Micro-CT, in words) [5]: obvious shortening of the femur | levels of Bcl-xL in femurs (IHC) [5]: reduced | expression levels of Gli1 in femurs (IHC) [5]: significantly suppressed | rate of weight growth ([5]; young mice treated from P12 to P16): decelerated the rate of weight growth

CN1C(=O)CCC(N2Cc3c(C#CCCCN4CCN(CCCNc5ccc(S(=O)(=O)NC(=O)c6ccc(N7CCN(CC8=C(c9ccc(Cl)cc9)CCC(C)(C)C8)CC7)cc6)cc5S(=O)(=O)C(F)(F)F)CC4)cccc3C2=O)C1=O (centres unmarked) [SIAIS361034NC]
Bcl-xL degradation (Bcl-xL; 1 µM, western blot): failed to degrade Bcl-xL | IC50 ([7]; 36 h, read-out: IC50 value inhibiting the Gli-luciferase activity provoked by SAG): 3.16 µM | IC50 [6]: 1.77 µM

Source: article PMC9691367, “The PROTAC selectively degrading Bcl-xL represents a novel Hedgehog pathway inhibitor with capacity of combating resistance to Smoothened inhibitors while sparing bone growth” (Theranostics, 2022)
